Source: patent US20100092526A1, “NANOEMULSION THERAPEUTIC COMPOSITIONS AND METHODS OF USING THE SAME” (NanoBio Corporation, priority 2008, published 2010)
≈ marks a conversion by molar mass, not a printed value.

Experiments:
[1] = test system: subset (23) of gram-negative isolates; test: Cidality (MBC/MIC ratio) against a subset (23) of gram-negative isolates; type: cell-based, gram-negative bacteria; conditions: 23 isolates
[2] = test system: methicillin-resistant Staphylococcus aureus (MRSA); test: Susceptibility (MIC/MBC) of MRSA clinical isolates; type: cell-based; conditions: Staphylococcus aureus; MRSA isolates; read-out: MIC90
[3] = test system: P. aeruginosa, B. cenocepacia, A. baumannii and S. maltophilia; test: MIC/MBC against all strains of Example 8; conditions: for MBC: read-out: MBC90, against all strains
Burkholderia strains = test: Checkerboard synergy study (FIC/FBC index); type: cell-based; conditions: for Summary of synergy data (overall interaction): Burkholderia, combined with P4075EC & 5 mM EDTA
Stenotrophomonas strains = test: Checkerboard synergy study (FIC/FBC index); type: cell-based; conditions: for Summary of synergy data (overall interaction): Stenotrophomonas, combined with P4075EC & 1 mM EDTA
Acinetobacter strains = test: Checkerboard synergy study (FIC/FBC index); type: cell-based; conditions: for Summary of synergy data (overall interaction): Acinetobacter, combined with P4075EC & 1 mM EDTA
[4] = isolate NB21, combined with P4075EC+EDTA
[5] = isolate NB22, combined with P4075EC+EDTA
[6] = isolate NB23, combined with P4075EC+EDTA
[7] = isolate NB24, combined with P4075EC+EDTA
[8] = isolate NB25, combined with P4075EC+EDTA
[9] = isolate NB26, combined with P4075EC+EDTA
[10] = isolate NB27, combined with P4075EC+EDTA
[11] = isolate NB28b, combined with P4075EC+EDTA
[12] = isolate NB29, combined with P4075EC+EDTA
[13] = isolate NB30, combined with P4075EC+EDTA
[14] = share of ten Burkholderia strains with synergy, combined with P4075EC+EDTA
[15] = isolate NB42, combined with P4075EC+EDTA
[16] = isolate NB43, combined with P4075EC+EDTA
[17] = isolate NB44, combined with P4075EC+EDTA
[18] = isolate NB45, combined with P4075EC+EDTA
[19] = isolate Steno 1, combined with P4075EC+EDTA
[20] = isolate Steno 2, combined with P4075EC+EDTA
[21] = isolate Steno 3, combined with P4075EC+EDTA
[22] = isolate Steno 4, combined with P4075EC+EDTA
[23] = isolate Steno 6, combined with P4075EC+EDTA
[24] = isolate Steno 8, combined with P4075EC+EDTA
[25] = share of Stenotrophomonas strains with synergy, combined with P4075EC+EDTA
[26] = isolate NB31, combined with P4075EC+EDTA
[27] = isolate NB32, combined with P4075EC+EDTA
[28] = isolate NB33, combined with P4075EC+EDTA
[29] = isolate NB34, combined with P4075EC+EDTA
[30] = isolate NB35, combined with P4075EC+EDTA
[31] = isolate NB36, combined with P4075EC+EDTA
[32] = isolate NB37, combined with P4075EC+EDTA
[33] = isolate NB38, combined with P4075EC+EDTA
[34] = isolate NB39, combined with P4075EC+EDTA
[35] = isolate NB40, combined with P4075EC+EDTA
[36] = share of 10 Acinetobacter strains with synergy, combined with P4075EC+EDTA

C[C@H]1COc2c(N3CCN(C)CC3)c(F)cc3c(=O)c(C(=O)O)cn1c23 [Levofloxacin]
number of strains with MBC/MIC ratio 1 ([1]; Cidal): 9 number of strains
number of strains with MBC/MIC ratio 2 ([1]; Cidal): 8 number of strains
number of strains with MBC/MIC ratio 4 ([1]; Cidal): 1 number of strains
number of strains with MBC/MIC ratio >8x ([1]; Static): 5 number of strains
MIC90 [2]: 32 µg/mL (≈ 88.6 µM)
MIC90 [3]: 16 µg/mL (≈ 44.3 µM)
MBC [3]: 16 µg/mL (≈ 44.3 µM)

NC[C@H]1O[C@H](O[C@H]2[C@H](O)[C@@H](O[C@H]3O[C@H](CO)[C@@H](O)[C@H](N)[C@H]3O)[C@H](N)C[C@@H]2N)[C@H](N)C[C@@H]1O [Tobramycin]
Summary of synergy data (overall interaction) (Burkholderia strains): No Interference
Summary of synergy data (overall interaction) (Stenotrophomonas strains): No Interference
Summary of synergy data (overall interaction) (Acinetobacter strains): No Interference
MIC90 [3]: > 32 µg/mL
MBC [3]: > 32 µg/mL

Colistin
Summary of synergy data (overall interaction) (Burkholderia strains): No Interference
FBC (Burkholderia strains; [4]): 2.07
FIC (Burkholderia strains; [4]): 1.45
Synergy (FBC) (Burkholderia strains; [4]): indifferent
Synergy (FIC) (Burkholderia strains; [4]): indifferent
FBC (Burkholderia strains; [5]): 2.29
FIC (Burkholderia strains; [5]): 1.37
Synergy (FBC) (Burkholderia strains; [5]): indifferent
Synergy (FIC) (Burkholderia strains; [5]): indifferent
FBC (Burkholderia strains; [6]): 2.00
FIC (Burkholderia strains; [6]): 1.01
Synergy (FBC) (Burkholderia strains; [6]): indifferent
Synergy (FIC) (Burkholderia strains; [6]): indifferent
FBC (Burkholderia strains; [7]): 2.00
FIC (Burkholderia strains; [7]): 1.72
Synergy (FBC) (Burkholderia strains; [7]): indifferent
Synergy (FIC) (Burkholderia strains; [7]): indifferent
FBC (Burkholderia strains; [8]): 3.00
FIC (Burkholderia strains; [8]): 2.00
Synergy (FBC) (Burkholderia strains; [8]): indifferent
Synergy (FIC) (Burkholderia strains; [8]): indifferent
FBC (Burkholderia strains; [9]): 0.04
FIC (Burkholderia strains; [9]): 0.56
Synergy (FBC) (Burkholderia strains; [9]): yes
Synergy (FIC) (Burkholderia strains; [9]): yes
FBC (Burkholderia strains; [10]): 1.64
FIC (Burkholderia strains; [10]): 1.93
Synergy (FBC) (Burkholderia strains; [10]): indifferent
Synergy (FIC) (Burkholderia strains; [10]): indifferent
FBC (Burkholderia strains; [11]): 1.54
FIC (Burkholderia strains; [11]): 0.29
Synergy (FBC) (Burkholderia strains; [11]): indifferent
Synergy (FIC) (Burkholderia strains; [11]): yes
FBC (Burkholderia strains; [12]): 1.68
FIC (Burkholderia strains; [12]): 1.61
Synergy (FBC) (Burkholderia strains; [12]): indifferent
Synergy (FIC) (Burkholderia strains; [12]): indifferent
FBC (Burkholderia strains; [13]): 1.86
FIC (Burkholderia strains; [13]): 0.02
Synergy (FBC) (Burkholderia strains; [13]): indifferent
Synergy (FIC) (Burkholderia strains; [13]): yes
% FBC Synergy (Burkholderia strains; [14]): 10%
% FIC Synergy (Burkholderia strains; [14]): 30%
Summary of synergy data (overall interaction) (Stenotrophomonas strains): Synergy
FBC (Stenotrophomonas strains; [15]): 1.28
FIC (Stenotrophomonas strains; [15]): 0.08
Synergy (FBC) (Stenotrophomonas strains; [15]): indifferent
Synergy (FIC) (Stenotrophomonas strains; [15]): yes
FBC (Stenotrophomonas strains; [16]): 0.15
FIC (Stenotrophomonas strains; [16]): 0.08
Synergy (FBC) (Stenotrophomonas strains; [16]): yes
Synergy (FIC) (Stenotrophomonas strains; [16]): yes
FBC (Stenotrophomonas strains; [17]): 0.57
FIC (Stenotrophomonas strains; [17]): 1.01
Synergy (FBC) (Stenotrophomonas strains; [17]): indifferent
Synergy (FIC) (Stenotrophomonas strains; [17]): indifferent
FBC (Stenotrophomonas strains; [18]): 0.45
FIC (Stenotrophomonas strains; [18]): 0.04
Synergy (FBC) (Stenotrophomonas strains; [18]): yes
Synergy (FIC) (Stenotrophomonas strains; [18]): yes
FBC (Stenotrophomonas strains; [19]): 0.11
FIC (Stenotrophomonas strains; [19]): 0.08
Synergy (FBC) (Stenotrophomonas strains; [19]): yes
Synergy (FIC) (Stenotrophomonas strains; [19]): yes
FBC (Stenotrophomonas strains; [20]): 0.04
FIC (Stenotrophomonas strains; [20]): 0.09
Synergy (FBC) (Stenotrophomonas strains; [20]): yes
Synergy (FIC) (Stenotrophomonas strains; [20]): yes
FBC (Stenotrophomonas strains; [21]): 0.14
FIC (Stenotrophomonas strains; [21]): 0.09
Synergy (FBC) (Stenotrophomonas strains; [21]): yes
Synergy (FIC) (Stenotrophomonas strains; [21]): yes
FBC (Stenotrophomonas strains; [22]): 1.14
FIC (Stenotrophomonas strains; [22]): 0.46
Synergy (FBC) (Stenotrophomonas strains; [22]): indifferent
Synergy (FIC) (Stenotrophomonas strains; [22]): yes
FBC (Stenotrophomonas strains; [23]): 0.02
FIC (Stenotrophomonas strains; [23]): 0.09
Synergy (FBC) (Stenotrophomonas strains; [23]): yes
Synergy (FIC) (Stenotrophomonas strains; [23]): yes
FBC (Stenotrophomonas strains; [24]): 0.07
FIC (Stenotrophomonas strains; [24]): 0.09
Synergy (FBC) (Stenotrophomonas strains; [24]): yes
Synergy (FIC) (Stenotrophomonas strains; [24]): yes
% FBC Synergy (Stenotrophomonas strains; [25]): 70%
% FIC Synergy (Stenotrophomonas strains; [25]): 90%
Summary of synergy data (overall interaction) (Acinetobacter strains): No Interference
FBC (Acinetobacter strains; [26]): 2.44
FIC (Acinetobacter strains; [26]): 0.83
Synergy (FBC) (Acinetobacter strains; [26]): indifferent
Synergy (FIC) (Acinetobacter strains; [26]): indifferent
FBC (Acinetobacter strains; [27]): 1.36
FIC (Acinetobacter strains; [27]): 0.58
Synergy (FBC) (Acinetobacter strains; [27]): indifferent
Synergy (FIC) (Acinetobacter strains; [27]): indifferent
FBC (Acinetobacter strains; [28]): 2
FIC (Acinetobacter strains; [28]): 0.33
Synergy (FBC) (Acinetobacter strains; [28]): indifferent
Synergy (FIC) (Acinetobacter strains; [28]): yes
FBC (Acinetobacter strains; [29]): 1.10
FIC (Acinetobacter strains; [29]): 0.46
Synergy (FBC) (Acinetobacter strains; [29]): indifferent
Synergy (FIC) (Acinetobacter strains; [29]): yes
FBC (Acinetobacter strains; [30]): 0.97
FIC (Acinetobacter strains; [30]): 0.72
Synergy (FBC) (Acinetobacter strains; [30]): indifferent
Synergy (FIC) (Acinetobacter strains; [30]): indifferent
FBC (Acinetobacter strains; [31]): 2
FIC (Acinetobacter strains; [31]): 0.56
Synergy (FBC) (Acinetobacter strains; [31]): indifferent
Synergy (FIC) (Acinetobacter strains; [31]): indifferent
FBC (Acinetobacter strains; [32]): 1.00
FIC (Acinetobacter strains; [32]): 0.63
Synergy (FBC) (Acinetobacter strains; [32]): indifferent
Synergy (FIC) (Acinetobacter strains; [32]): indifferent
FBC (Acinetobacter strains; [33]): 0.68
FIC (Acinetobacter strains; [33]): 0.77
Synergy (FBC) (Acinetobacter strains; [33]): indifferent
Synergy (FIC) (Acinetobacter strains; [33]): indifferent
FBC (Acinetobacter strains; [34]): 1.22
FIC (Acinetobacter strains; [34]): 0.72
Synergy (FBC) (Acinetobacter strains; [34]): indifferent
Synergy (FIC) (Acinetobacter strains; [34]): indifferent
FBC (Acinetobacter strains; [35]): 0.91
FIC (Acinetobacter strains; [35]): 0.63
Synergy (FBC) (Acinetobacter strains; [35]): indifferent
Synergy (FIC) (Acinetobacter strains; [35]): indifferent
% FBC Synergy (Acinetobacter strains; [36]): 0%
% FIC Synergy (Acinetobacter strains; [36]): 20%
